Measurements reported in PubChem BioAssay AID260 (DTP/NCI, 2004).
“And” between values parts separate entries of the source, which are not always exact repeats. Equal values may be shown once. Toxic doses and inconclusive results are not listed.

System: CD2F1 mice, intracerebral L1210 leukemia, survival T/C
Experiment: NCI In Vivo Anticancer Drug Screen. Data for tumor model L1210 Leukemia (intracerebral) in CD2F1 (CDF1) mice
Conditions: higher = longer survival
Description: The antitumor activity of compounds was measured in mice bearing transplantable tumors. Survival or tumor size were measured and the results are expressed as the measurement made in the treated group (T) divided by the measurement made in the vehicle treated control group (C). The tumor model used in this assay is L1210 Leukemia (intracerebral) in CD2F1 (CDF1) mice

[1] = endpoint: median survival time, dose: 32.0 mg/kg/injection, schedule: Q01DX005 (ip), vehicle: saline with Tween-80
[2] = endpoint: median survival time, dose: 8.0 mg/kg/injection, schedule: Q01DX009 (ip), vehicle: saline with Tween-80
[3] = endpoint: median survival time, dose: 16.0 mg/kg/injection, schedule: Q01DX009 (ip), vehicle: saline with Tween-80
[4] = endpoint: median survival time, dose: 32.0 mg/kg/injection, schedule: Q01DX009 (ip), vehicle: saline with Tween-80
[5] = endpoint: median survival time, dose: 64.0 mg/kg/injection, schedule: Q01DX009 (ip), vehicle: saline with Tween-80
[6] = endpoint: median survival time, dose: 128.0 mg/kg/injection, schedule: Q01DX009 (ip), vehicle: saline with Tween-80
[7] = endpoint: median survival time, dose: 256.0 mg/kg/injection, schedule: Q01DX009 (ip), vehicle: saline with Tween-80
[8] = endpoint: median survival time, dose: 512.0 mg/kg/injection, schedule: Q01DX009 (ip), vehicle: saline with Tween-80

CC/C(=C(/CC)c1ccc(O)cc1)c1ccc(O)cc1
T/C (endpoint: median survival time, dose: 8.0 mg/kg/injection, schedule: Q01DX009 (ip), vehicle: saline): 104 % of control and 113 % of control | T/C (endpoint: median survival time, dose: 16.0 mg/kg/injection, schedule: Q01DX005 (ip), vehicle: saline with Tween-80): 93 % of control and 106 % of control | T/C (endpoint: median survival time, dose: 16.0 mg/kg/injection, schedule: Q01DX009 (ip), vehicle: saline): 104 % of control and 113 % of control | T/C [1]: 93 % of control and 103 % of control | T/C (endpoint: median survival time, dose: 32.0 mg/kg/injection, schedule: Q01DX009 (ip), vehicle: saline): 98 % of control and 112 % of control | T/C (endpoint: median survival time, dose: 64.0 mg/kg/injection, schedule: Q01DX005 (ip), vehicle: saline with Tween-80): 103 % of control and 116 % of control | T/C (endpoint: median survival time, dose: 64.0 mg/kg/injection, schedule: Q01DX009 (ip), vehicle: saline): 105 % of control and 112 % of control | T/C (endpoint: median survival time, dose: 128.0 mg/kg/injection, schedule: Q01DX005 (ip), vehicle: saline with Tween-80): 103 % of control and 105 % of control | T/C (endpoint: median survival time, dose: 256.0 mg/kg/injection, schedule: Q01DX009 (ip), vehicle: saline): 112 % of control | T/C (endpoint: median survival time, dose: 512.0 mg/kg/injection, schedule: Q01DX009 (ip), vehicle: saline): 86 % of control

CCCCCC(=O)O[C@]1(C(C)=O)CC[C@H]2[C@@H]3CCC4=CC(=O)CC[C@]4(C)[C@H]3CC[C@@]21C
T/C [2]: 117 % of control | T/C [3]: 104 % of control | T/C [4]: 114 % of control | T/C [5]: 94 % of control | T/C [6]: 93 % of control | T/C [7]: 94 % of control | T/C [8]: 107 % of control

N[C@@H](Cc1ccc(N(CCCl)CCCl)cc1)C(=O)O
T/C (endpoint: mean survival time, dose: 1.25 mg/kg/injection, schedule: Q01DX009 (ip), vehicle: saline): 116 % of control | T/C (endpoint: mean survival time, dose: 2.5 mg/kg/injection, schedule: Q01DX009 (ip), vehicle: saline): 120 % of control

COC(=O)NC1=C(N2CC2)C(=O)C(NC(=O)OC)=C(N2CC2)C1=O
T/C (endpoint: median survival time, dose: 0.37 mg/kg/injection, schedule: Q01DX009 (ip), vehicle: saline): 112 % of control and 117 % of control | T/C (endpoint: median survival time, dose: 0.75 mg/kg/injection, schedule: Q01DX009 (ip), vehicle: saline): 120 % of control and 122 % of control

CC1C[C@@H](O)C(NC(=O)N(CCCl)N=O)[C@@H](O)C1 (stereo not given in full)
T/C (endpoint: mean survival time, dose: 6.0 mg/kg/injection, schedule: Q01DX001 (ip), vehicle: saline): 123 % of control | T/C (endpoint: mean survival time, dose: 13.0 mg/kg/injection, schedule: Q01DX001 (ip), vehicle: saline): 154 % of control | T/C (endpoint: mean survival time, dose: 20.0 mg/kg/injection, schedule: Q01DX001 (ip), vehicle: saline): 332 % of control | T/C (endpoint: mean survival time, dose: 30.0 mg/kg/injection, schedule: Q01DX001 (ip), vehicle: saline): 186 % of control | T/C (endpoint: mean survival time, dose: 45.0 mg/kg/injection, schedule: Q01DX001 (ip), vehicle: saline): 157 % of control

CN(Cc1ccccc1)/N=N/c1nc[nH]c1C(N)=O
T/C [1]: 112 % of control | T/C (endpoint: median survival time, dose: 512.0 mg/kg/injection, schedule: Q01DX005 (ip), vehicle: saline with Tween-80): 94 % of control

CS(C)=O
T/C (endpoint: median survival time, dose: 1000.0 mg/kg/injection, schedule: Q01DX005 (ip), vehicle: saline): 101 % of control and 106 % of control | T/C (endpoint: median survival time, dose: 1.5 grams/kg/injection, schedule: Q01DX009 (ip), vehicle: saline): 104 % of control | T/C (endpoint: median survival time, dose: 2000.0 mg/kg/injection, schedule: Q01DX005 (ip), vehicle: saline): 98 % of control and 102 % of control | T/C (endpoint: median survival time, dose: 3.0 grams/kg/injection, schedule: Q01DX009 (ip), vehicle: saline): 102 % of control | T/C (endpoint: median survival time, dose: 4000.0 mg/kg/injection, schedule: Q01DX005 (ip), vehicle: saline): 98 % of control and 102 % of control | T/C (endpoint: median survival time, dose: 6.0 grams/kg/injection, schedule: Q01DX009 (ip), vehicle: saline): 104 % of control and 107 % of control | T/C (endpoint: median survival time, dose: 8000.0 mg/kg/injection, schedule: Q01DX005 (ip), vehicle: saline): 118 % of control and 107 % of control

CN(C)N=Nc1ccccc1
T/C (endpoint: mean survival time, dose: 6.25 mg/kg/injection, schedule: Q01DX009 (ip), vehicle: Klucel (hydroxypropylcellulose) (HPC)): 101 % of control and 104 % of control and 112 % of control | T/C (endpoint: mean survival time, dose: 12.5 mg/kg/injection, schedule: Q01DX009 (ip), vehicle: Klucel (hydroxypropylcellulose) (HPC)): 109 % of control and 112 % of control and 113 % of control | T/C (endpoint: mean survival time, dose: 25.0 mg/kg/injection, schedule: Q01DX009 (ip), vehicle: Klucel (hydroxypropylcellulose) (HPC)): 118 % of control | T/C (endpoint: mean survival time, dose: 50.0 mg/kg/injection, schedule: Q01DX009 (ip), vehicle: Klucel (hydroxypropylcellulose) (HPC)): 120 % of control and 107 % of control and 115 % of control

O=C1C=C(N2CC2)C(=O)C=C1N1CC1
T/C (endpoint: mean survival time, dose: 0.12 mg/kg/injection, schedule: Q01DX009 (ip), vehicle: saline): 102 % of control and 103 % of control and 104 % of control | T/C (endpoint: mean survival time, dose: 0.25 mg/kg/injection, schedule: Q01DX009 (ip), vehicle: saline): 102 % of control and 103 % of control and 108 % of control | T/C (endpoint: mean survival time, dose: 0.5 mg/kg/injection, schedule: Q01DX009 (ip), vehicle: saline): 103 % of control and 106 % of control and 108 % of control | T/C (endpoint: mean survival time, dose: 1.0 mg/kg/injection, schedule: Q01DX009 (ip), vehicle: saline): 89 % of control and 90 % of control and 98 % of control

C[C@]1(O)CC[C@H]2[C@@H]3CCC4=CC(=O)CC[C@]4(C)[C@@]3(F)[C@@H](O)C[C@@]21C
T/C [2]: 112 % of control | T/C [3]: 112 % of control | T/C [4]: 104 % of control | T/C [5]: 104 % of control | T/C [6]: 122 % of control | T/C [7]: 104 % of control | T/C [8]: 96 % of control
